These results are taken from PubChem BioAssay (NCI).

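Assay format: 96-well plates, 48-hour exposure. Definition used: TGI = concentration required for complete inhibition of growth.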 *1 amine or outer side, *2 acyl side, *3 side chain or, on linkers, in order; H or OH if unused. Where a SMILES comes first, the peptide text is derived from it. [ ]: non-standard residue; d: D form. The star is where a group is joined. ξ: configuration not given here. X27 = O=C([C@H]1CCC[C@H]1N[*:1])[*:2]; ξW = NC(Cc1c[nH]c2ccccc12)C(=O)O; ξF = NC(Cc1ccccc1)C(=O)O; Boc = CC(C)(C)OC(=O)*; ξK = NCCCCC(N)C(=O)O; ξT = CC(O)C(N)C(=O)O; tBu = CC(C)(C)*

Common to all, as to assay: growth of human tumour cells (NCI), 48 h
The subject of assay [1] is MOLT-4 leukemia.
In assay [2] the test system is K-562 leukemia.
In assay [3] the test system is HL-60(TB) leukemia.
Assay [4] concerns MALME-3M melanoma.
Assay [5] deals with UACC-62 melanoma.
Assay [6] deals with SK-MEL-28 melanoma.
The test system of assay [7] is UACC-257 melanoma.
Assay [8] deals with KM12 colon.
Assay [9] relates to SF-295 CNS.
Assay [10] has as its system NCI/ADR-RES ovarian.
The test system of assay [11] is NCI-H226 lung.
Assay [12] has as its system M14 melanoma.
For assay [13], the system named is COLO 205 colon.
Assay [14] relates to OVCAR-8 ovarian.
For assay [15], the system named is SN12C renal.
In assay [16] the test system is LOX IMVI melanoma.
The test system of assay [17] is U251 CNS.
The test system of assay [18] is PC-3 prostate.
The subject of assay [19] is A498 renal.

For the molecule `Cc1c2ccnc(C(=O)NCCN(C)C)c2cc2c3cc(O)ccc3n(C)c12`, the TGI in assay [1] was found to be 0.0147 µM; in assay [2], 2.4 µM; in [3] it was 0.532 µM; in assay [4], 2.06 µM; in assay [5], 1.01 µM; in assay [6], 2.14 µM. The TGI in [7] was found to be 4.74 µM; in assay [8] it was 5.41 µM; in assay [9], 3.37 µM; in assay [10], 6.64 µM; in assay [11], 2.26 µM; in [12], 1.47 µM. Further, the TGI in assay [13] amounted to 4.01 µM; in assay [14], 4.06 µM; in assay [15], 2.15 µM; in assay [16], 1.26 µM; in assay [17], 2.43 µM; in [18] it was 2 µM.
`COc1cc(=O)c2c(O)c3c(O)oc(C)cc3c(OC)c2c1`: the TGI in assay [1] was 73.7 µM; in assay [2], 51.7 µM; in assay [3], greater than 100 µM; in assay [4], 47 µM; in assay [5] it was 52.9 µM; in [6] it was 60 µM. Moreover, the TGI is greater than 100 µM in assay [7]; greater than 100 µM in assay [19]; 65.8 µM in assay [8]; 72.7 µM in assay [9]; 46.7 µM in [10]; 88.5 µM in [12]. In addition, the TGI was 42.2 µM in assay [13]; 72 µM in [14]; 55.8 µM in assay [15]; greater than 100 µM in [17]; greater than 100 µM in [18].
As to `c1ccc2c(c1)NCCC(=NC1CCCCC1)N2`, the TGI in [1], in assay [2], in assay [3], in assay [4], in assay [5] and in [6] was greater than 100 µM in each case. In addition, the TGI in [7], in assay [19], in assay [8], in [9], in assay [10] and in assay [11] was greater than 100 µM in each case. Besides, the TGI in [12], in assay [13], in [14], in assay [15], in assay [17] and in assay [18] was greater than 100 µM throughout.
Take `O=C(Cn1cc(-c2ccccc2)nn1)NC1CCCCC1`: the TGI in [1], in assay [2], in [3], in assay [4], in [6] and in assay [7] was greater than 100 µM in each case. Besides, the TGI in assay [8], in [9], in [10], in assay [11], in assay [12] and in [13] was greater than 100 µM each time. Further, the TGI in assay [14], in [15], in [16], in assay [17] and in [18] was greater than 100 µM throughout.
On to `CCCC(=O)NC(Nc1cc(C)ccn1)(C(=O)OCC)C(F)(F)F` (stereo unspecified), for which the TGI in assay [1], in [2], in [3], in [4], in [5] and in assay [6] was greater than 100 µM in each case. The TGI in assay [7], in assay [8], in assay [9], in [10], in assay [11] and in assay [12] was greater than 100 µM throughout. Moreover, the TGI in [13], in assay [14], in assay [15], in assay [16], in [17] and in assay [18] was greater than 100 µM in each case.
As for `C1=NCCN2CCN(CCN=Cc3ccccc3OCc3cccc(n3)COc3ccccc31)CC2`, the TGI in assay [1] is 34.3 µM; in assay [2], greater than 50 µM; in assay [3], 22.6 µM; in assay [4], 32.4 µM; in assay [5], 7.8 µM; in assay [6], greater than 50 µM. Moreover, the TGI in [7] is 34.4 µM; in assay [19], greater than 50 µM; in assay [8] it was 26.2 µM; in [9], 14.1 µM; in assay [10], 17.2 µM; in assay [12], greater than 50 µM. Also, the TGI in [13] was greater than 50 µM; in assay [14] it was 35.5 µM; in assay [15] it was 26.3 µM; in assay [17] it was 10.2 µM; in assay [18], greater than 50 µM.
Regarding `CC(OC(C)(C)C)C1NC(=O)C(CCCCNC(=O)OC(C)(C)C)NC(=O)C(Cc2c[nH]c3ccccc23)NC(=O)C(Cc2ccccc2)NC(=O)[C@H]2CCC[C@H]2NC(=O)C(Cc2ccccc2)NC1=O` (stereo partly specified) (cyclo([X27][ξF][ξW][ξK](Boc)[ξT](tBu)[ξF])), the TGI in [1], in assay [2], in assay [3], in assay [4], in assay [5] and in [6] was greater than 100 µM throughout. Besides, the TGI is 33.5 µM in assay [7]; greater than 100 µM in assay [8]; 73.7 µM in assay [9]; greater than 100 µM in assay [10]; greater than 100 µM in assay [11]; greater than 100 µM in assay [12]. The TGI in [13] is greater than 100 µM; in assay [14] it was greater than 100 µM; in assay [15], 88.6 µM; in [16], greater than 100 µM; in [17], greater than 100 µM; in assay [18] it was greater than 100 µM.
In the case of `O=C1c2cccnc2S(=O)(=O)N1c1ccc(Oc2ccccc2)cc1`, the TGI in assay [1], in assay [2], in assay [3], in [4], in assay [5] and in assay [6] was greater than 100 µM throughout. The TGI in assay [7], in assay [19], in [8], in assay [9], in assay [10] and in assay [11] was greater than 100 µM each time. Also, the TGI in [12], in assay [13], in assay [14], in [15], in assay [17] and in assay [18] was greater than 100 µM in each case.
